Test results published in patent US20260365633A1, “Novel PEM Structures for SBX” (Roche Sequencing Solutions, Inc., priority 2023, published 2026).

Biological target: T1, C4760 DNA polymerase (a variant of DPO4) (Saccharolobus solfataricus, UniProt Q97W02, A155G/A42V/D156R/D292Y/D294N/E291S/E324K/E325K/E327K/E63R/E79L/G187P/G299W/I153V/I189F/I248T/I295S/K152A/K317Q/K321Q/K56Y/K78D/L293W/M76W/N188Y/P184Q/Q82W/Q83G/R300S/S297Y/S86E/T290K/T301W/V289W/V296Q)
T1 construct: Eco or Kod SSB in reaction as additive
T1 sequence (Q97W02 1-340 A155G/A42V/D156R/D292Y/D294N/E291S/E324K/E325K/E327K/E63R/E79L/G187P/G299W/I153V/I189F/I248T/I295S/K152A/K317Q/K321Q/K56Y/K78D/L293W/M76W/N188Y/P184Q/Q82W/Q83G/R300S/S297Y/S86E/T290K/T301W/V289W/V296Q): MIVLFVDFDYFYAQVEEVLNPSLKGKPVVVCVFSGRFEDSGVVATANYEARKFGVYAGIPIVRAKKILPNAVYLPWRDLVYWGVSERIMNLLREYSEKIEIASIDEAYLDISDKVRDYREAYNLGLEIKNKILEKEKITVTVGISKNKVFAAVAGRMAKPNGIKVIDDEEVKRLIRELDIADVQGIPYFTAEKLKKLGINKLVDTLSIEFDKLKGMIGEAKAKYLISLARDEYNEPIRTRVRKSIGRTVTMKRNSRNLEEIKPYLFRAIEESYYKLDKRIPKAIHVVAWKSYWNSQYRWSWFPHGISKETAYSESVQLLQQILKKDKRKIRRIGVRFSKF
Experiment: Primer extension on 45mer RNA template (HIV2) with C4760 polymerase, gel
Format: biochemical, Sulfolobus solfataricus
Details: 2 Mm PEM, 45mer RNA template derived from HIV2, Kod SSB, 30 minutes at 37 °C
Method: To begin to investigate the potential of PEMs to enhance diverse polymerase reactions, the ability of PEMS to enable DNA polymerase to utilize RNA as a template was tested. An initial screen of several compounds set forth in Table 1 was conducted using a 45mer RNA template derived from the HIV2 genome sequence. Primer extension reactions included the following reagents: 50 Mm TrisCl, 200 Mm NH4OAc, 20% PEG8K, 5% NMS, 0.6 nmol PP-60.20, 0.6 Mm MnCl2, 2 μg Kod single-strand binding protein (SSB), 1 M urea, 50 pmol each XNTP, 0.5 pmol template, 0.5 pmol [COMPOUND LEFT OUT] primer, 1.2 μg purified recombinant C4760 DNA polymerase (a variant of DPO4, see SEQ ID NO: 2), and 2 Mm PEM. 10 μL primer extension reactions were run for 30 minutes at 37 °C and reaction products were analyzed by gel electrophoresis.

SMILES | PEM activity on RNA template
CCN(CC)C(=O)c1cc(-c2cn(-c3ccc(C(=O)O)c(O)c3)nn2)nc(-c2cn(-c3ccc(C(=O)O)c(O)c3)nn2)c1 [Compound 49, 4,4′-((4-(diethylcarbamoyl)pyridine-2,6-diyl)bis(1H-1,2,3-triazole-4,1-diyl))bis(2-hydroxybenzoic acid)] | display PEM activity on an RNA template
O=C(O)c1ccc(-n2cc(-c3cc(C(=O)N4CCOCC4)cc(-c4cn(-c5ccc(C(=O)O)c(O)c5)nn4)n3)nn2)cc1O [Compound 51, 4,4′-((4-(morpholine-4-carbonyl)pyridine-2,6-diyl)bis(1H-1,2,3-triazole-4,1-diyl))bis(2-hydroxybenzoic acid)] | display PEM activity on an RNA template
CCNC(=O)c1cc(-c2cn(-c3ccc(C(=O)O)c(C(F)(F)F)c3)nn2)nc(-c2cn(-c3ccc(C(=O)O)c(C(F)(F)F)c3)nn2)c1 [Compound 73, 4,4′-((4-(ethylcarbamoyl)pyridine-2,6-diyl)bis(1H-1,2,3-triazole-4,1-diyl))bis(2-(trifluoromethyl)benzoic acid)] | display PEM activity on an RNA template
CCNC(=O)c1cc(-c2cn(-c3ccc(C(F)(F)F)c(C(=O)O)c3)nn2)nc(-c2cn(-c3ccc(C(F)(F)F)c(C(=O)O)c3)nn2)c1 [Compound 75, 5,5′-((4-(ethylcarbamoyl)pyridine-2,6-diyl)bis(1H-1,2,3-triazole-4,1-diyl))bis(2-(trifluoromethyl)benzoic acid)] | display PEM activity on an RNA template
CCNC(=O)c1cc(-c2cn(-c3ccc(C(=O)O)c(F)c3)nn2)nc(-c2cn(-c3ccc(C(=O)O)c(F)c3)nn2)c1 [Compound 76, 4,4′-((4-(ethylcarbamoyl)pyridine-2,6-diyl)bis(1H-1,2,3-triazole-4,1-diyl))bis(2-fluorobenzoic acid)] | display PEM activity on an RNA template
CCNC(=O)c1cc(-c2cn(-c3cc(C(=O)O)cc(C(F)(F)F)c3)nn2)nc(-c2cn(-c3cc(C(=O)O)cc(C(F)(F)F)c3)nn2)c1 [Compound 93, 5,5′-((4-(ethylcarbamoyl)pyridine-2,6-diyl)bis(1H-1,2,3-triazole-4,1-diyl))bis(3-(trifluoromethyl)benzoic acid)] | display PEM activity on an RNA template
O=C(NCCO)c1cc(-c2cn(-c3ccc(C(=O)O)c(C(F)(F)F)c3)nn2)nc(-c2cn(-c3ccc(C(=O)O)c(C(F)(F)F)c3)nn2)c1 [Compound 105, 4,4′-((4-((2-hydroxyethyl)carbamoyl)pyridine-2,6-diyl)bis(1H-1,2,3-triazole-4,1-diyl))bis(2-(trifluoromethyl)benzoic acid)] | display PEM activity on an RNA template
CCNC(=O)c1cc(-c2cn(-c3ccc(C(=O)O)c([N+](=O)[O-])c3)nn2)nc(-c2cn(-c3ccc(C(=O)O)c([N+](=O)[O-])c3)nn2)c1 [Compound 106, 4,4′-((4-(ethylcarbamoyl)pyridine-2,6-diyl)bis(1H-1,2,3-triazole-4,1-diyl))bis(2-nitrobenzoic acid)] | display PEM activity on an RNA template
CCNC(=O)c1cc(-c2cn(-c3ccc(C(=O)NCC(=O)O)c(C(F)(F)F)c3)nn2)nc(-c2cn(-c3ccc(C(=O)NCC(=O)O)c(C(F)(F)F)c3)nn2)c1 [Compound 110, 2,2′-((4,4′-((4-(ethylcarbamoyl)pyridine-2,6-diyl)bis(1H-1,2,3-triazole-4,1-diyl))bis(2-(trifluoromethyl)benzoyl))bis(azanediyl))diacetic acid] | display PEM activity on an RNA template
CCNC(=O)c1cc(-n2cc(-c3ccc(C(=O)O)c(C(F)(F)F)c3)nn2)cc(-n2cc(-c3ccc(C(=O)O)c(C(F)(F)F)c3)nn2)c1 [Compound 116, 4,4′-((5-(ethylcarbamoyl)-1,3-phenylene)bis(1H-1,2,3-triazole-1,4-diyl))bis(2-(trifluoromethyl)benzoic acid)] | display PEM activity on an RNA template
